Measurements published in US6369003B1, “Process and composition for soil improvement by reducing microbially formed ethylene in the soil” (BASF Aktiengesellschaft, priority 1994, dated 2002).

How the values were obtained:
[1] = system: rape (Petranova); assay: Promotion of shoot growth of rape, greenhouse; assay type: in vivo; details: applied by watering 10 days after sowing; 3 weeks after treatment
Description: (§1) In these tests various types of non-sterile soils were used. The cultivation of the plants was carried out under greenhouse or climatic chamber conditions. The active compounds according to the invention were applied uniformly distributed over the soil surface in an aqueous preparation after the emergence of the respective test plants. The supply of water for the plants was carrried out using the same technique, always paying attention to uniform moistness of the soil. In the case of the cultivation of legumes, defined amounts of species-specific Rhizobia were admixed to the soil. In some cases inoculation was also carried out by seed treatment.
Wheat (Ralle) and rape (Petranova) plants were cultured under greenhouse conditions in low N Limburgerhof soil in plastic pots (500 ml) and watered from above as required. The water content of the soil here was about 80% of the maximum water capacity. A few days after emergence the plants were thinned out to 40 plants per pot.
10 days after sowing aqueous preparations of 2.3.1.3 were applied by watering to 8 pots per test series in each case. 16 pots in each case remained untreated. 3 weeks after treatment the fresh shoot weight of the plants was determined.

[2] = system: Soybean plants (Delta Pine 415); assay: Soybeans test 3b: root nodules, greenhouse; assay type: in vivo, Glycine max; details: untreated 47
Description: as §1
a) Soybean plants (Delta Pine 415) were cultivated under greenhouse conditions in low N Limburgerhof soil in plastic pots (500 ml) and watered from above as required. A few days after emergence the plants were thinned out to 5 plants per pot.
In 8 pots in each case per test member an aqueous active compound solution of 2.3.1.3 was applied by watering. 16 pots remained untreated in each case.
b) Test procedure as in 3 a) active compound 2.3.1.3

[3] = system: Soybeans (A 5403); assay: Soybeans test 3d: root nodules, root and shoot biomass, greenhouse; assay type: in vivo, Glycine max; details: 30 days after treatment; for Nodules: untreated 38.3; for Dry matter root: untreated 1955; for Dry matter shoot: untreated 3616
Description: as §1, with “treatment. d) Soybeans (A 5403) were cultivated under greenhouse conditions in low N, sandy loam soil in plastic pots (750 ml) and watered from above as required. A few days after emergence the plants were thinned out to 3 plants per pot. In 5 pots in each case 25 ml each of an aqueous preparation of one concentration of 2.3.1.3 were applied by watering. 5 pots remained untreated. 30 days after treatment the following results were obtained: […]” for “treatment.”

[4] = system: Bean plants (Small Seeded Bell); assay: Field beans: root nodules, root and shoot biomass, greenhouse; assay type: in vivo, Vicia faba; details: 25 days after treatment; for Nodules: untreated 30.9; for Dry matter root: untreated 1090; for Dry matter shoot: untreated 2310
Description: as §1
Bean plants (Small Seeded Bell) were cultivated under greenhouse conditions in low N, sandy loam soil in plastic pots (750 ml) and watered from above as required. A few days after emergence the plants were thinned out to 3 plants per pot.
In 5 pots in each case 25 ml each of an aqueous preparation of one concentration of 2.3.1.3 were applied by watering. 5 pots remained untreated.
(§2) 25 days after treatment the following results were obtained: […]

[5] = system: Chick-pea plants (UC-27); assay: Chick-peas: root nodules, root and shoot biomass, greenhouse; assay type: in vivo, Cicer arietinum; details: 25 days after treatment; for Nodules: untreated 11.3; for Dry matter root: untreated 1100; for Dry matter shoot: untreated 2110
Description: as §1
Chick-pea plants (UC-27) were cultivated under greenhouse conditions in low N, sandy loam soil in plastic pots (750 ml) and watered from above as required. A few days after emergence the plants were thinned out to 3 plants per pot.
In 6 pots in each case 25 ml each of an aqueous preparation of one concentration of 2.3.1.3 were applied by watering. 6 pots remained untreated.
as §2

[6] = system: Groudnuts of the variety Florigiant; assay: Field test: seed yield and seed quality in groundnuts; assay type: in vivo, Arachis hypogaea; details: for Seeds of the highest quality level: relative, untreated = 100 (38.0 %); for Yield of groundnuts: untreated = 100 (45.4 dt/ha)
Description: The tests a) and b) were carried out under conditions like those in practice in 1993 on the field test site of BASF Corporation in Holly Springs, N.C., USA. This location is distinguished by a medium-heavy soil (sandy loam). Groudnuts of the variety Florigiant were used. Treatment was carried out 20, 27 and 34 days after emergence of the plants. For treatment, the soil between the rows was sprayed with an aqueous preparation of the active compound 2.3.1.3. Immediately after application the active compound was washed into the soil by spray irrigation with 20 mm of water. The spray irrigation was also used to wash off active compound which had possibly reached the leaves. Harvesting of the plants at full maturity gave the following results: […]

[7] = 10 g/ha of a.s., treated 20 days after emergence
[8] = 10 g/ha of a.s., treated 27 days after emergence
[9] = 10 g/ha of a.s., treated 34 days after emergence
[10] = 100 g/ha of a.s., treated 20 days after emergence
[11] = 100 g/ha of a.s., treated 27 days after emergence
[12] = 100 g/ha of a.s., treated 34 days after emergence
[13] = 1000 g/ha of a.s., treated 20 days after emergence
[14] = 1000 g/ha of a.s., treated 27 days after emergence
[15] = 1000 g/ha of a.s., treated 34 days after emergence

With `COC(=O)COC(=O)CON=C(C)C` [active compound 2.3.1.3] the “shoot growth (fresh shoot weight)” value [1] was “shoot growth was promoted in nearly all cases”, the Nodules ([2]; 0.003 mg of a.s./pot; procedure as in 3 a)) was 72 number/pot and the Nodules ([2]; 0.030 mg of a.s./pot; procedure as in 3 a)) was 83 number/pot. It also gave a Nodules ([2]; 0.300 mg of a.s./pot; procedure as in 3 a)) of 69 number/pot, a Nodules ([3]; 3 g of a.s./ha) of 47.6 number/plant and a Dry matter root ([3]; 3 g of a.s./ha) of 2806 mg/plant. The Dry matter shoot ([3]; 3 g of a.s./ha) was 4020 mg/plant, the Nodules ([3]; 300 g of a.s./ha) was 54.9 number/plant and the Dry matter root ([3]; 300 g of a.s./ha) was 1326 mg/plant. It also gave a Dry matter shoot ([3]; 300 g of a.s./ha) of 4117 mg/plant, a Nodules ([4]; 30 g of a.s./ha) of 34.3 number/plant and a Dry matter root ([4]; 30 g of a.s./ha) of 1380 mg/plant. For the same compound, the Dry matter shoot ([4]; 30 g of a.s./ha) was 2880 mg/plant, the Nodules ([4]; 300 g of a.s./ha) was 50.7 number/plant and the Dry matter root ([4]; 300 g of a.s./ha) was 1470 mg/plant. The Dry matter shoot ([4]; 300 g of a.s./ha) was 3940 mg/plant, the Nodules ([4]; 3000 g of a.s./ha) was 48.2 number/plant and the Dry matter root ([4]; 3000 g of a.s./ha) was 960 mg/plant. For the same compound, the Dry matter shoot ([4]; 3000 g of a.s./ha) was 2450 mg/plant, the Nodules ([5]; 30 g of a.s./ha) was 31.4 number/plant and the Dry matter root ([5]; 30 g of a.s./ha) was 1280 mg/plant. For the same compound, the Dry matter shoot ([5]; 30 g of a.s./ha) was 2690 mg/plant, the Nodules ([5]; 300 g of a.s./ha) was 44.0 number/plant and the Dry matter root ([5]; 300 g of a.s./ha) was 1520 mg/plant. For the same compound, the Dry matter shoot ([5]; 300 g of a.s./ha) was 3350 mg/plant, the Nodules ([5]; 3000 g of a.s./ha) was 6.2 number/plant and the Dry matter root ([5]; 3000 g of a.s./ha) was 1150 mg/plant. For the same compound, the Dry matter shoot ([5]; 3000 g of a.s./ha) was 4110 mg/plant, the “Seeds of the highest quality level” value [6, 7] was 124% and the Yield of groundnuts [6, 7] was 108%. The “Seeds of the highest quality level” value [6, 8] was 121%, the Yield of groundnuts [6, 8] was 109% and the “Seeds of the highest quality level” value [6, 9] was 113%. For the same compound, the Yield of groundnuts [6, 9] was 124%, the “Seeds of the highest quality level” value [6, 10] was 95% and the Yield of groundnuts [6, 10] was 121%. For the same compound, the “Seeds of the highest quality level” value [6, 11] was 113%, the Yield of groundnuts [6, 11] was 104% and the “Seeds of the highest quality level” value [6, 12] was 84%. The Yield of groundnuts [6, 12] was 121%, the “Seeds of the highest quality level” value [6, 13] was 103% and the Yield of groundnuts [6, 13] was 113%. For the same compound, the “Seeds of the highest quality level” value [6, 14] was 113%, the Yield of groundnuts [6, 14] was 120% and the “Seeds of the highest quality level” value [6, 15] was 108%. It also gave a Yield of groundnuts [6, 15] of 113%.
